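Dose response: 5 concentrations. Exposure: 48 h. Format: 96-well plates. Endpoint: linear interpolation; highest concentration if not reached. GI50 marks 50% less growth. TGI denotes the concentration required for complete inhibition of growth.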
Tests used:
Assay in all cases: DTP human tumour cell line panel, 48 h
[1] = system: NCI-H226 lung
[2] = system: SF-295 CNS
[3] = system: BT-549 breast
[4] = system: OVCAR-5 ovarian
[5] = system: HCT-116 colon
[6] = system: RXF 393 renal
[7] = system: SR leukemia
[8] = system: CAKI-1 renal
[9] = system: MCF7 breast
[10] = system: HL-60(TB) leukemia

SMILES | TGI [1] [µM] | TGI [2] [µM] | TGI [3] [µM] | TGI [4] [µM] | TGI [5] [µM] | TGI [6] [µM] | TGI [7] [µM] | TGI [8] [µM] | TGI [9] [µM] | TGI [10] [µM] | GI50 [1] [µM] | GI50 [2] [µM] | GI50 [10] [µM] | GI50 [4] [µM] | GI50 [5] [µM] | GI50 [6] [µM] | GI50 [8] [µM] | GI50 [9] [µM] | GI50 [7] [µM]
COC(=O)[C@H](Cc1c[nH]c2ccccc12)NC(=O)c1ccc(CNC(=O)/C=C/c2cccc(Oc3ccccc3)c2)cc1 | > 100 | > 100 | > 100 | > 100 | > 100 | 81.6 | > 100 | > 100 | > 100 |  |  |  |  |  |  |  |  |  | 
CCOC(=O)CC1(c2cccc3ccccc23)OC(=O)c2ccccc21 (stereo unspecified) | > 100 | > 100 |  | > 100 |  | 70.1 |  | > 100 |  | 54.1 |  |  |  |  |  |  |  |  | 
Clc1ccc(C(SCc2ccccc2)SCc2ccccc2)cc1 | > 10 | > 10 |  |  | > 10 | > 10 | > 10 | > 10 | > 10 | > 10 |  |  |  |  |  |  |  |  | 
FC(F)(F)c1cccc(-c2nc3ccccc3c3c2[C@@]2(N4CCCC4)CCCC[C@@H]32)c1 | > 100 | 74.7 |  | > 100 | > 100 | > 100 | > 100 | > 100 | 62.8 | 71.6 |  |  |  |  |  |  |  |  | 
COc1ccc(CN=C(N)N)c2ccccc12 | > 100 | 36.7 |  | 73.4 | > 100 | > 100 |  | > 100 | > 100 | 91 |  |  |  |  |  |  |  |  | 
c1csc(C[N+]23CN4CN(CN(C4)C2)C3)c1 | > 100 | > 100 |  | 67.3 | > 100 |  | 35.9 | 59.5 |  | 33.2 |  |  |  |  |  |  |  |  | 
O=[N+]([O-])c1cc2c(cc1/C=N/n1c(CO)nc3ccccc31)OCO2 | > 100 | > 100 | > 100 | > 100 | > 100 | > 100 |  | > 100 | > 100 | > 100 |  |  |  |  |  |  |  |  | 
Cc1noc(NC2=CC(=O)C(=O)c3ccccc32)c1C | > 100 | > 100 | 50.2 | > 100 | > 100 |  | > 100 | > 100 | 17.9 | 52.2 |  |  |  |  |  |  |  |  | 
O=C1OC(=O)c2cc(S(=O)(=O)c3ccc4c(c3)C(=O)OC4=O)ccc21 | > 100 | > 100 | > 100 | > 100 | > 100 | > 100 |  | > 100 | > 100 |  |  |  |  |  |  |  |  |  | 
COc1cc2c(cc1OC)C1(COc3cc(O)c(O)c(O)c3C1=O)C2 (stereo unspecified) | > 50 | > 50 |  | > 50 | > 50 | > 50 | > 50 | > 50 | 41.1 | > 50 |  |  |  |  |  |  |  |  | 
CCOC(=O)CNc1nc(=O)c2c(=O)oc(Cl)cc2o1 | > 100 | > 100 |  | 38.7 | 24.4 |  |  | 29.1 |  |  |  |  |  |  |  |  |  |  | 
CC(=O)OC[C@@H](OC(C)=O)[C@H](OC(C)=O)[C@@H]1OC(C)(C)O[C@@H]1C1SCCCS1 |  | > 100 | > 100 | > 100 | > 100 | > 100 | > 100 | > 100 | > 100 |  |  |  |  |  |  |  |  |  | 
O=S(=O)(/N=C(\NO)Nc1ccc(Cl)cc1)c1cccc2nsnc12 | > 100 | > 100 | 83.9 | 75.5 | 85.4 | > 100 |  | 70 |  | 39.1 |  |  |  |  |  |  |  |  | 
O=C1c2cc(Cl)ccc2NC(=NCCCl)C2CSCN12 (stereo unspecified) | > 100 | > 100 | > 100 | > 100 | > 100 | > 100 | > 100 | > 100 | > 100 |  |  |  |  |  |  |  |  |  | 
CC(=O)OC1COC(Nc2nc(NCc3ccccc3)n(C)c(=O)c2N=O)C(OC(C)=O)C1OC(C)=O (stereo unspecified) | > 10 | > 10 | > 10 | > 10 | > 10 | > 10 |  | > 10 | > 10 | > 10 |  |  |  |  |  |  |  |  | 
COc1ccc(N2C(=O)C3c4[nH]c5ccc(F)cc5c4C4CCC(c5ccccc5)CC4C3C2=O)cc1 (stereo unspecified) | > 100 | > 100 | 40.7 | 47.8 | > 100 |  | 36.1 | 48.1 | > 100 |  |  |  |  |  |  |  |  |  | 
Nc1nc(N)c2cc(NCc3ccc(Cl)c(Cl)c3)ccc2n1 | 3.14 | 2.61 |  | 2.19 | 1.58 | 2.34 |  | 2.71 | 2.75 | 2.93 | 1.53 | 1.22 | 1.35 | 1.02 | 0.391 | 1.13 | 1.37 | 1.36 | 
COC(C)(C)C1(O)CCC(C)CC1=O (stereo unspecified) |  | > 100 | > 100 | > 100 | > 100 | > 100 | > 100 | > 100 |  | > 100 |  |  |  |  |  |  |  |  | 
Cc1ccc(/C(O)=C/c2nc3ccccc3s/c2=N/CS(=O)(=O)c2ccc(C)cc2)cc1 |  | > 10 | > 10 | > 10 | > 10 |  | > 10 | > 10 | > 10 | > 10 |  |  |  |  |  |  |  |  | 
CC(=O)N=C1N(/C=C2\C(=O)Oc3ccccc3C2=O)C(=O)/C(=C/c2ccc(NC(C)=O)cc2)N1C | > 100 | > 100 |  | > 100 | > 100 | > 100 | > 100 | > 100 | > 100 | > 100 |  |  |  |  |  |  |  |  | 
Oc1ccc(Cl)cc1CN1CCN(Cc2cc(Cl)ccc2O)C1 | 4.66 | 7.73 |  | 16.9 | 1.34 | 4.14 |  | 6.48 | 24.1 | 7.41 |  |  |  |  |  |  |  |  | 
O=C(Nc1ccc(-n2ccc3c(NC(=O)c4ccccc4)ncnc32)cc1)Nc1cccc(Cl)c1Cl | 4.87 | > 50 |  | 2.84 | 2.38 | 1.79 | 2.92 | 24.9 | 5.81 | > 50 | 1.07 | 2.22 | 13.6 | 1.04 | 0.673 | 0.796 | 3.84 | 1.12 | 0.659

Source: PubChem BioAssay (NCI)
